Measured values: patent publication US20240344103A1, “IN VITRO MODELS FOR ESTIMATING DRUG DOSAGE” (Hennepin Healthcare Research Institute, priority 2021, published 2024)
Entries after “also recorded” stand apart in the source; their conditions may differ. Where two headings read alike, the source gives them in different places.

Columns and labels:
Gut Microbiota = settings: cited from earlier work
stool microbiota [1] = assay: In vitro anaerobic culture of patient stool microbiome with MPA or MPAG, HPLC-MS/MS of supernatant; assay type: in vitro ADME, human
Method: A human microbiome sample from stool was collected from a patient between days 15-45 post-transplant, during their 12-hour pharmacokinetic visit. Prior to the initiation of the culture of microbiome stool sample, in the MPA arm of the experiment, a 1 mg/mL stock solution of MPA was diluted to […] in thirteen anaerobic culture tubes by adding 0.7 mL of the stock MPA solution to 6.3 mL of YCFA (Yeast extract-Casein hydrolysate-fatty acids) medium broth. Likewise, for the MPAG arm of the experiment, a […] stock solution of MPAG was diluted to […] in thirteen anaerobic culture tubes by adding 0.7 mL of the stock MPAG solution to 6.3 mL of YCFA (Yeast extract-Casein hydrolysate-fatty acids) medium broth.
Stool aliquots of ˜0.5 g were incubated in separate YCFA tubes containing MPA or MPAG for six hours, 24 hours, or 48 hours in separate tubes, at 37° C. under anaerobic conditions (FIG. 2). All aliquots were collected at each timepoint in triplicate. Aliquots were also collected from MPA and MPAG tubes without any stool samples at zero, six hours, 24 hours, and 48 hours to serve as controls for this experiment.
After incubation, samples were […] at 16,000×g for 10 minutes, and the supernatant was collected and stored at −80° C. prior to high performance liquid chromatography-tandem mass spectrometry (HPLC-MS/MS) analysis. The supernatant was assessed for the presence and concentration of total MPA and MPAG using a validated mass spectrometry assay. Total MPA and MPAG concentration were determined based on certified analytical reference standards of […] of MPA and MPAG. These analytical reference standards were used as internal standards during the mass spectrometry assay.

stool microbiota [2] = assay: as above; assay type: in vitro ADME, human; settings: stool frozen at −80° C. for mean 312 days, thawed at 4° C. overnight, assay at 37° C.; six and 24 hours
[3] = 12-hour MPA pharmacokinetic profile in kidney transplant patients taking MMF; assay type: in vivo, human; settings: five kidney transplant participants on MMF
Method: The following example used a stool sample of a kidney transplant patient who was on a steady state dose of 1 gram of mycophenolate mofetil (MMF) twice a day (FIG. 1). This patient underwent intensive pharmacokinetic sampling over 12 hours to assess enterohepatic recirculation (EHR) carefully and accurately. Once participants reach a steady state dose between days 15-45 post-transplant, fourteen blood samples were obtained at the time the morning MMF does was administered and at 30 minutes, one hour, two hours, three hours, four hours, five hours, six hours, seven hours, eight hours, nine hours, ten hours, 11 hours, and 12 hours following the morning MMF dose. The sampling strategy assured capture of the secondary peak and EHR characteristics.
Five kidney transplant recipients taking MMF and tacrolimus as maintenance immunosuppression had their six-hour MPA levels assessed in the in vitro assay exposing microbiome to MPAG (FIG. 5). These patients also underwent an extensive 12-hour MPA pharmacokinetic (PK) profile (FIG. 6), and the stool samples were collected at the time of the PK profile. The percent EHR in these kidney transplant recipients was defined as [MPA AUC6-12 hour]/[AUC0-12 hour]×100 as a measure of their in vivo EHR. The correlation coefficient between the six-hour MPA level from the in vitro model with percentage EHR was 0.82 (95% CI—0.21 to 0.98, P=0.08).

[4] = effect of gut microbiome on the compound

Row | Compound | Gut Microbiota Modification (Gut Microbiota) | Effect of microbial modification (Gut Microbiota; [4]) | further results
1 | Nc1nc(F)nc2c1ncn2[C@@H]1O[C@H](COP(=O)(O)O)[C@@H](O)[C@@H]1O [Fludarabine de phosphate] | Improved efficacy | Activation [7] | 
2 | Ipilimumab: Antil CTLA-4 human monoclonal antibody (Ab) therapeutic drug |  |  | Effect of microbial modification (Gut Microbiota): Activation [2, 10]
3 | CCc1c2c(nc3ccc(OC(=O)N4CCC(N5CCCCC5)CC4)cc13)-c1cc3c(c(=O)n1C2)COC(=O)[C@]3(O)CC [Irinotecan] |  | Toxicity [1, 2] | 
4 | COc1c(C)c2c(c(O[C@@H]3O[C@H](C(=O)O)[C@@H](O)[C@H](O)[C@H]3O)c1C/C=C(\C)CCC(=O)O)C(=O)OC2 [MPAG, mycophenolic acid glucuronide] |  |  | MPAG concentration in the MPA tubes incubated with stool microbiome samples (stool microbiota [1]; MPA arm, MPA to MPAG conversion, six, 24, 48 hours): no detectable concentrations; MPAG concentration in MPAG tubes incubated with stool microbiome samples (stool microbiota [1]; MPAG arm, one patient stool, anaerobic, six hours post incubation): rapid metabolism; also recorded: rapid decrease; MPAG concentration in control aliquots (stool microbiota [1]; MPAG in YCFA without stool, zero, six, 24, 48 hours): remained stable; MPAG to MPA conversion by gut microbiota (stool microbiota [1]; stool of five kidney transplant patients, YCFA, anaerobic, first six hours): Rapid metabolism; also recorded: high MPAG to MPA conversion; MPAG to MPA conversion in repeat assay (stool microbiota [2]): showed ability of the stool microbiome sample to metabolism MPAG to MPA as before
5 | CN(C)C(=N)N=C(N)N [Metformin] |  | Activation [2, 11] | 
6 | C=CC[C@@H]1/C=C(\C)C[C@H](C)C[C@H](OC)[C@H]2O[C@@](O)(C(=O)C(=O)N3CCCC[C@H]3C(=O)O[C@H](/C(C)=C/[C@@H]3CC[C@@H](O)[C@H](OC)C3)[C@H](C)[C@@H](O)CC1=O)[C@H](C)C[C@@H]2OC [Tacrolimus] |  | Inactivation [8] | 
7 | Nc1ccn([C@@H]2O[C@H](CO)[C@@H](O)C2(F)F)c(=O)n1 [Gemcitabine] | Inhibited efficacy | Inactivation[7] | 
8 | CC1=C(CC(=O)O)c2cc(F)ccc2/C1=C\c1ccc([S+](C)[O-])cc1 (stereo not shown) [Sulindac] |  | Toxicity [2, 4-6] | 
9 | COc1c(C)c2c(c(O)c1C/C=C(\C)CCC(=O)O)C(=O)OC2 [MPA, mycophenolic acid] |  |  | MPA concentration after incubation with stool bacteria compared to control samples (stool microbiota [1]; MPA arm, one kidney transplant patient stool, YCFA, 37° C., anaerobic, six, 24 and 48 hours, controls without stool): did not change; also recorded: no difference was detected; MPA concentration relative to amount expected from full MPAG conversion (stool microbiota [1]; MPAG arm, one patient stool, 24 and 48 hours): higher than the amount expected if all MPAG is converted to MPA; MPA concentration in MPAG tubes incubated with stool microbiome samples (stool microbiota [1]; MPAG arm, starting at six hours, upward trend at 24 and 48 hours): increase; Release of MPA bioaccumulated in microbiome cells on addition of MPAG (stool microbiota [1]; in vitro assay, MPAG substrate added): led to the release of MPA that had accumulated inside the cells; also recorded: promotes the release of bioaccumulated MPA; % EHR (MPA AUC6-12 hour/AUC0-12 hour×100), mean [3]: 46%; % EHR (MPA AUC6-12 hour/AUC0-12 hour×100), range [3]: 41-60%; mean MPA trough ([3]; SD ±1.66): 3.5 mg/L; mean dose normalized MPA AUC0-12 ([3]; ±0.02): 0.07 mg·h/L
10 | Nc1nc(Cl)nc2c1ncn2[C@H]1C[C@H](O)[C@@H](CO)O1 [Cladribine] | Inhibited efficacy | Inactivation[7] | 
11 | NC(=O)c1cc(N2CC2)c([N+](=O)[O-])cc1[N+](=O)[O-] [CB1954] | Improved efficacy | Activation [7] | 
12 | COc1c(C)c2c(c(O)c1C/C=C(\C)CCC(=O)OCCN1CCOCC1)C(=O)OC2 [Mycophenolate Mofetil (MMF), mycophenolate mofetil] |  | Toxicity [4-6] | 
13 | O=C(O)Cc1ccccc1Nc1c(Cl)cccc1Cl [Diclofenac] |  | Toxicity [2, 3] | 
